Assay results as given in ChEMBL document CHEMBL1811886 (J Med Chem, 2011).

Assays:
Histamine H3 receptor [1] = target: T1, Histamine H3 receptor (Homo sapiens, UniProt Q9Y5N1); assay: Displacement of [3H]NAMH from human histamine H3 receptor expressed in CHO cells; type: cell-based
[2] = Systemic clearance in fasted Sprague-Dawley rat at 1 mg/kg, iv after 6 to 24 hrs by LC-MS/MS analysis; type: ADME, organism-based; parameters: dose 1 mg/kg, route intravenous; conditions: in vivo
[3] = Oral bioavailability in fasted Sprague-Dawley rat at 5 mg/kg after 6 hrs by LC-MS/MS analysis; type: ADME, organism-based; conditions: in vivo
Histamine H3 receptor [4] = target: T2, Histamine H3 receptor (Rattus norvegicus, UniProt Q9QYN8); assay: Displacement of [3H]NAMH from rat histamine H3 receptor expressed in CHO cells; type: cell-based
[5] = Ratio of drug uptake in brain to plasma of fasted Sprague-Dawley rat at 1 mg/kg, iv after 6 to 24 hrs by LC-MS/MS analysis; type: ADME, organism-based; parameters: dose 1 mg/kg, route intravenous; conditions: read-out: BPR
[6] = Terminal half life in fasted Sprague-Dawley rat at 1 mg/kg, iv after 6 to 24 hrs by LC-MS/MS analysis; type: ADME, organism-based; parameters: dose 1 mg/kg, route intravenous; conditions: in vivo, read-out: beta t1/2 (converted)
Rattus norvegicus = assay: Inhibition of RAMH-induced dipsogenia in Long Evans rat administered as po 15 mins prior to RAMH challenge; type: functional
Histamine H3 receptor [7] = target: T1, Histamine H3 receptor; assay: Antagonist activity against human histamine H3 receptor assessed as inhibition of R-alpha-methylhistamine induced [35S]GTPgammaS binding; type: functional
Histamine H3 receptor [8] = target: T2, Histamine H3 receptor; assay: Inverse agonist activity at rat histamine H3 receptor assessed as inhibition of R-alpha-methylhistamine induced [35S]GTPgammaS binding; type: functional
[9] = Oral bioavailability in fasted Sprague-Dawley rat at 10 mg/kg after 24 hrs by LC-MS/MS analysis; type: ADME, organism-based; conditions: in vivo
[10] = target: Voltage-gated inwardly rectifying potassium channel KCNH2 (Homo sapiens, UniProt Q12809); assay: Inhibition of recombinant human ERG channel expressed in human HEK 293 cells by patch clamp assay; type: cell-based, HEK293
Histamine H3 receptor [11] = target: T1, Histamine H3 receptor; assay: Inverse agonist activity at human histamine H3 receptor assessed as inhibition of R-alpha-methylhistamine induced [35S]GTPgammaS binding; type: functional

T2 sequence (Q9QYN8 whole entry): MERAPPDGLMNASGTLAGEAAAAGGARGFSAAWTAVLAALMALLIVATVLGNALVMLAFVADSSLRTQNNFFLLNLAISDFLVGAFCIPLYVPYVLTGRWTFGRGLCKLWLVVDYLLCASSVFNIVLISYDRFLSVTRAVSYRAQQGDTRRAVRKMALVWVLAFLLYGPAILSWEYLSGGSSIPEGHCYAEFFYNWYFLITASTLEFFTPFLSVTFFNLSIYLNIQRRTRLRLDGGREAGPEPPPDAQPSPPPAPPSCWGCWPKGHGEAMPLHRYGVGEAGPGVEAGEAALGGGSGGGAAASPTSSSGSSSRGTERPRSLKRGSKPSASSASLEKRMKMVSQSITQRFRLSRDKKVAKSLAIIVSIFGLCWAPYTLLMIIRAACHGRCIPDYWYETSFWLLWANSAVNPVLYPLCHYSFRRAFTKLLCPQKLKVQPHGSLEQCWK
T1 sequence (Q9Y5N1 whole entry): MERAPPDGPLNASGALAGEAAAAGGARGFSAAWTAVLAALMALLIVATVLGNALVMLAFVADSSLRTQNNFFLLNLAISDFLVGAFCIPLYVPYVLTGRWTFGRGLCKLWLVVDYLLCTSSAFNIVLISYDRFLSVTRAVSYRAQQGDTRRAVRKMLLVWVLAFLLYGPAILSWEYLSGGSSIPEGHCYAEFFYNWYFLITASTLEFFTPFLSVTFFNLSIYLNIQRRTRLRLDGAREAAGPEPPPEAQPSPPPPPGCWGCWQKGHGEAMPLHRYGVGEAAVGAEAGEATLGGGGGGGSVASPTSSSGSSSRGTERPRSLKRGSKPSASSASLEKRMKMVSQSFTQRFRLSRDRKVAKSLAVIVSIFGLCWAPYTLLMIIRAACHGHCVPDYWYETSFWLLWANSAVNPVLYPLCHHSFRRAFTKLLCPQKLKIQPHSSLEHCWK
Sequence of Voltage-gated inwardly rectifying potassium channel KCNH2 (Q12809 whole entry): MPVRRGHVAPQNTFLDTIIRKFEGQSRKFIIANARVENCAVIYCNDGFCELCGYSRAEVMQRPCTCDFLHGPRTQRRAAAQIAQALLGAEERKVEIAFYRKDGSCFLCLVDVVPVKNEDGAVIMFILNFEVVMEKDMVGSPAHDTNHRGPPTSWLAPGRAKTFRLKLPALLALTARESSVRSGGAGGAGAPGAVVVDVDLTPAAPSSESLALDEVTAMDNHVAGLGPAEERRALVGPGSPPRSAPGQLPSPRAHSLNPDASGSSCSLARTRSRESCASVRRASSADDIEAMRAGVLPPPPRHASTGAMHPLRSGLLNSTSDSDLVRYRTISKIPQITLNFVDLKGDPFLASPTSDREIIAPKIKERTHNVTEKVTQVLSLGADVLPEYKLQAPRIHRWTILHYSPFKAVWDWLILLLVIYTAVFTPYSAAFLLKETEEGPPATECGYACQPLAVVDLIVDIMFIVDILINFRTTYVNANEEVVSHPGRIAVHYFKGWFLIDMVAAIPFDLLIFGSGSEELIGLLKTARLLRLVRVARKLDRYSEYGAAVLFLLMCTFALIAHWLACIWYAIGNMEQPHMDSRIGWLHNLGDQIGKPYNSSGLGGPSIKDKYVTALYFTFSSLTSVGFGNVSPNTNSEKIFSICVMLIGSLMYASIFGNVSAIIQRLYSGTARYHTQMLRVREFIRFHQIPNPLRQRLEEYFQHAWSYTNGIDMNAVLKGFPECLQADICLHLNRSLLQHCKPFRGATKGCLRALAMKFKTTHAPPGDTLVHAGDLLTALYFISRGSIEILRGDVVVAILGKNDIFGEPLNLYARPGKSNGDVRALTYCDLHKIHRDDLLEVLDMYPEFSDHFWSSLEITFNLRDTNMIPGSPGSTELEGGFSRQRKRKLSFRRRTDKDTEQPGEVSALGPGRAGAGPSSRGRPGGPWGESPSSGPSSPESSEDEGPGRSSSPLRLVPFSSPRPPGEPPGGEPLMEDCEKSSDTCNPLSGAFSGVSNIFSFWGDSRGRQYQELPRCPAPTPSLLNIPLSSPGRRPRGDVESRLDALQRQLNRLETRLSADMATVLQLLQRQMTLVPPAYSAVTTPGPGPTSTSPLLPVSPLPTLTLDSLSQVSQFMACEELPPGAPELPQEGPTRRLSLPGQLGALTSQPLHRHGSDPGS

SMILES	Ki (Histamine H3 receptor [1])	clearance [2]	bioavailability [3]	Ki (Histamine H3 receptor [4])	Kp [5]	half-life [6]	ED50 (Rattus norvegicus)	Kb (Histamine H3 receptor [7])	EC50 (Histamine H3 receptor [8])	bioavailability [9]	IC50 [10]	EC50 (Histamine H3 receptor [11])
CC(C)n1nc(-c2ccc(OCCCN3CCC[C@H]3C)cc2)ccc1=O	4.8 nM	258 mL/min/kg	5%	7.6 nM	2.1	0.3 h						
C[C@@H]1CCCN1CCCOc1ccc(-c2cn[nH]c(=O)c2)cc1	2.8 nM	9.6 mL/min/kg		8.5 nM	1.8	1 h	0.03 mg/kg	0.4 nM	2.1 nM	24%	9500 nM	1.1 nM
C[C@@H]1CCCN1CCCOc1ccc(-c2ccc(=O)n(-c3ccccc3)n2)cc1	2.5 nM	11.7 mL/min/kg	10%	7.9 nM	6.2	2.1 h						
C[C@H]1CCCN1CCCOc1ccc(-c2ccc(=O)[nH]n2)cc1	16 nM	14.5 mL/min/kg	25%	50 nM	3.1	1.6 h						
